Laboratory results published in patent US7160733B2, “Ligand specific to β2-glycoprotein I and use thereof” (priority 2001, dated 2007).

T1: β2-GPI (Homo sapiens, UniProt P02749)
T1 construct: β2-GPI was purified from normal human plasma as described in [35] with slight modification; from tissue; host or cells: pooled normal human plasma from healthy subjects
T1 sequence (P02749 20-345): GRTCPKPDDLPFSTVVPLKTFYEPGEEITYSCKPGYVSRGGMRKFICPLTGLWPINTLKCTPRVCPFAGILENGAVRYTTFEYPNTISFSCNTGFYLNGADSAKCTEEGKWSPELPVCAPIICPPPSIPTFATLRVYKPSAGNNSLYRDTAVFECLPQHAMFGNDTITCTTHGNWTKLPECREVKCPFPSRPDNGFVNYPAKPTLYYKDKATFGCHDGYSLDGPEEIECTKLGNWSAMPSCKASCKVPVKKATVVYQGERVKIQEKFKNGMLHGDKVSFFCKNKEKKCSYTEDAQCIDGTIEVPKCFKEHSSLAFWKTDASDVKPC


Assays:
anti-β2-GPI antibodies = assay: ELISA of the anti-β2-GPI antibodies by use of a ligand-coated plate (results in words); format: binding
Protocol: (§1) Binding to extracted lipids: A microtiter plate (Immulon 1B, Dynex Technologies Inc.) was coated with lipids extracted from LDLs (50 μg/mL, 50 μL/well) by ethanol evaporation. The wells were blocked with PBS containing 1% BSA for one hour and the wells were incubated with 30 μg/mL of β2-GPI for one hour. Then, β2-GPI binding was detected using Cof-22 and HRP-labeled anti-mouse IgG antibodies. Alternatively, an anti-β2-GPI autoantibody (Cof-22, WB-CAL-1, or EY2C9) was diluted with a 0.3% BSA-containing PBS, and the diluted antibody was added to the coated plate (1.0 μg/mL, 100 μL/well) and incubated with β2-GPI (15 μg/mL) for one hour. The binding of the antibody was detected by an HRP-labeled anti-mouse IgG /or an anti-human IgM. The color was developed with H2O2 and o-phenylenediamine, and OD was measured at 490 nm. Between these steps, extensive washing were done using PBS containing 0.05% Tween 20.
(§2) Synthesized oxLig-1 (50 μg/mL, 50 μL/well) was adsorbed by evaporation on a polystyrene plate (Immulon 1B; Dynex Technologies Inc.), and the plate was then blocked with 1% BSA. Serum samples (diluted 1:100 with PBS containing 0.3% BSA) were incubated in the wells with β2-GPI (15 μg/mL) or other proteins for one hour at room temperature. Antibody binding was detected with HRP-labeled anti-human IgG. Further steps were performed through a method as described in “anti-β2-GPI ELISA.”

EY2C9 = assay: ELISA on solid-phase lipid (ligand)-coated plate: EY2C9 binding in presence of β2-GPI; design: species or system human; details: Absorbance, mean ± SD, n = 3; for Binding of protein-dependent oxLig-1 antibody, EY2C9: Experiment 2, synthesized oxLig-1-solidified plate, added protein 15 μg/mL
Protocol: as §1, §2
(§3) CL (50 μg/mL, 50 μL/well) was adsorbed on a polystyrene plate (Immulon 1B), and further steps were performed through a method as described in “ELISA for antibodies against a protein-oxLig-1 complex.”

APS-1 = assay: ELISA on solid-phase lipid-coated plate: binding of antibodies of APS patient serum APS-1; design: species or system human; details: Absorbance, mean ± SD, n = 3; for Binding of protein-dependent oxLig-1 antibody, APS-1: Experiment 2, synthesized oxLig-1-solidified plate, added protein 15 μg/mL
Protocol: (§4) To eliminate endogenous β2-GPI in some experiments, serum samples were passed through a heparin-Sepharose column. The effluent was dialyzed against PBS and was used for ELISAs.
as §2, §3

β2-GPI [1] = target: T1, β2-GPI; assay: ELISA on solid-phase lipid (ligand)-coated plate: β2-GPI binding detected with Cof-22; details: Experiment 1; Absorbance, mean ± SD, n = 3; solid-phase lipid, β2-GPI 15 μg/mL
Protocol: as §1, §2, §3

APS-2 = assay: ELISA on solid-phase lipid-coated plate: binding of antibodies of APS patient serum APS-2; design: species or system human; details: Absorbance, mean ± SD, n = 3; for Binding of protein-dependent oxLig-1 antibody, APS-2: Experiment 2, synthesized oxLig-1-solidified plate, added protein 15 μg/mL
Protocol: as §4, §2, §3

WB-CAL-1 [2] = assay: Optical biosensor (IAsys): binding to solid phase WB-CAL-1 in the presence of β2-GPI; design: species or system mouse; details: β2-GPI 10 μg/mL, result in words
Text: (§5) FIG. 1. Molecular interactions among β2-GPI, LDLs, […] (PLs), and anti-β2-GPI autoantibody, detected by an optical biosensor. • A: LDL (open square) or oxLDL (closed square) binding to solid phase β2-GPI; • B: LDL (open square) or oxLDL (closed square) binding to solid phase WB-CAL-1 in the presence of β2-GPI; • C: DOPE (open circle) or CL (closed circle) binding to solid phase β2-GPI; and • D: DOPE (open circle) or CL (closed circle) binding to solid phase WB-CAL-1 in the presence of β2-GPI.
(§6) Real-time molecular analysis was performed using an optical biosensor, IAsys (product of Affinity Sensors).
(§7) Binding of β2-GPI to LDLs or liposomes: Biotinyl-β2-GPI was immobilized on a biotinyl-cuvette via streptavidin. LDLs or liposomes at various concentrations were placed in the cuvette. Antibodies binding to LDLs or liposomes: The biotinyl-WB-CAL-1 was immobilized on the cuvette. LDLs or liposomes were added at various concentrations in the presence (10 μg/mL) or absence of β2-GPI.

WB-CAL-1 [3] = assay: ELISA on solid-phase lipid (ligand)-coated plate: WB-CAL-1 binding in presence of β2-GPI; design: species or system mouse; details: Absorbance, mean ± SD, n = 3; for Binding of protein-dependent oxLig-1 antibody, WB-CAL-1: Experiment 2, synthesized oxLig-1-solidified plate, added protein 15 μg/mL
Protocol: as §1, §2, §3

β2-GPI [4] = target: T1, β2-GPI; assay: Optical biosensor (IAsys): binding to solid phase β2-GPI; details: result in words
Text: as §5, §6, §7

β2-GPI [5] = assay: ELISA on solid-phase lipid (ligand)-coated plate: β2-GPI binding detected with Cof-22; design: species or system human; details: Experiment 2; Absorbance, mean ± SD, n = 3; synthesized oxLig-1-solidified plate, added protein 15 μg/mL
Protocol: as §1, §2, §3

[6] = Experiment 1, solid-phase lipid, β2-GPI 15 μg/mL
[7] = Experiment 1, solid-phase lipid, β2-GPI 15 μg/mL, serum with β2-GPI removed

Molecule	cross-reaction of autoantibodies derived from APS with β2-GPI complexed with lipid (anti-β2-GPI antibodies; result in words)	Binding of β2-GPI-dependent aCL, EY2C9 (EY2C9; [6])	Binding of β2-GPI-dependent aCL, APS-1 (APS-1; [7])	Binding of β2-GPI-dependent aCL, Cof-22 (β2-GPI [1])	Binding of β2-GPI-dependent aCL, APS-2 (APS-2; [7])	binding to solid phase WB-CAL-1 in the presence of β2-GPI (WB-CAL-1 [2])	Binding of β2-GPI-dependent aCL, WB-CAL-1 (WB-CAL-1 [3]; [6])	binding to solid phase β2-GPI (β2-GPI [4])	antibody binding to solid-phase oxLig-1 provided by added protein (anti-β2-GPI antibodies; Exp-2, result in words)	Binding of protein-dependent oxLig-1 antibody, EY2C9 (EY2C9)	Binding of protein-dependent oxLig-1 antibody, APS-1 (APS-1)	Binding of protein-dependent oxLig-1 antibody, Cof-22 (β2-GPI [5])	Binding of protein-dependent oxLig-1 antibody, APS-2 (APS-2)	Binding of protein-dependent oxLig-1 antibody, WB-CAL-1 (WB-CAL-1 [3])
Cardiolipin [CL, reference compound]	cross-reacted	1.269 ± 0.014	2.099 ± 0.216	1.132 ± 0.025	1.282 ± 0.041	dose-dependent binding	1.361 ± 0.008	large extent of binding	–	–	–	–	–	–
CCCCCCCC/C=C\CCCCCCCC(=O)OC[C@H](COP(=O)(O)OCCN)OC(=O)CCCCCCC/C=C\CCCCCCCC [DOPE]	–	–	–	–	–	did not	–	did not show any specific binding	–	–	–	–	–	–
Haptoglobin: protein having sushi domains, without PL binding property	–	–	–	–	–	–	–	–	no antibody binding	0.006 ± 0.001	0.018 ± 0.011	0.049 ± 0.001	0.015 ± 0.002	0.006 ± 0.001
Ovalbumin: control protein added in Experiment 2 (protein, UniProt P01012 2-386, looked up) Ovalbumin: GSIGAASMEFCFDVFKELKVHHANENIFYCPIAIMSALAMVYLGAKDSTRTQINKVVRFDKLPGFGDSIEAQCGTSVNVHSSLRDILNQITKPNDVYSFSLASRLYAEERYPILPEYLQCVKELYRGGLEPINFQTAADQARELINSWVESQTNGIIRNVLQPSSVDSQTAMVLVNAIVFKGLWEKAFKDEDTQAMPFRVTEQESKPVQMMYQIGLFRVASMASEKMKILELPFASGTMSMLVLLPDEVSGLEQLESIINFEKLTEWTSSNVMEERKIKVYLPRMKMEEKYNLTSVLMAMGITDVFSSSANLSGISSAESLKISQAVHAAHAEINEAGREVVGSAEAGVDAASVSEEFRADHPFLFCIKHIATNAVLFFGRCVSP	–	–	–	–	–	–	–	–	–	0.004 ± 0.002	0.009 ± 0.004	0.042 ± 0.001	0.016 ± 0.001	0.006 ± 0.002
